The compounds below were run against T1, Mtb CYP121 (Mycobacterium tuberculosis, UniProt P9WPP7) (assay: UV/vis optical titration (Soret shift)). Settings: not given.
T1 sequence (P9WPP7 whole entry): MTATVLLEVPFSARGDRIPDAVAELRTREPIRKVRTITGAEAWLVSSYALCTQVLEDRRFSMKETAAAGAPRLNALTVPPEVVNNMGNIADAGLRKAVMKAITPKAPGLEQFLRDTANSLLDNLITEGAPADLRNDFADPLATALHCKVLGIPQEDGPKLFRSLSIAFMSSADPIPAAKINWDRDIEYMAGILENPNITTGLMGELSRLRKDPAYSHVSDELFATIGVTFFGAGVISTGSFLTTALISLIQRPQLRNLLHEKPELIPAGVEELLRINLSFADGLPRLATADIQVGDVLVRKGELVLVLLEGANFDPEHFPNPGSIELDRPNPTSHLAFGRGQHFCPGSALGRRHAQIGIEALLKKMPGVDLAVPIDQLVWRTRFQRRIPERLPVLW
Assay type: binding
Text: UV/vis optical titration (Soret shift) on Mtb CYP121
Compound N[C@H](Cc1c[nH]c2ccccc12)c1nc(-c2ccccc2)c[nH]1 [compound 14, imidazole 14] has a Kd of 530 ± 100 µM.

Same assay, conditions: read-out: K d [μM]^[b]
For N[C@H](Cc1c[nH]c2ccccc12)C(=S)NCCc1ccccc1 [compound 12, thioamide 12], the Kd was 150 ± 18 µM.
For N[C@H](Cc1c[nH]c2ccccc12)C(=O)NCCc1ccccc1 [compound 8, acyclic cWF-8], the Kd was 270 ± 22 µM.
N[C@H](Cc1c[nH]c2ccccc12)c1nc(-c2ccccc2)cs1 [compound 13, thiazole 13] showed a Kd of 44 ± 3.6 µM.
NC(Cc1c[nH]c2ccc(Br)cc12)C(=O)SCCc1ccccc1 (racemic) [compound 31, compound 31 (5-bromo-tryptophan phenethyl-thioester)] gave a Kd of 16 ± 2.4 µM.
COC(=O)[C@H](N)Cc1c[nH]c2ccccc12 [1a, D-tryptophan methyl ester] gave a Kd of 840 ± 88 µM.
Compound N[C@@H](Cc1c[nH]c2ccccc12)C(=O)OCCc1ccccc1 [compound 3, L-phenethyl ester 3] has a Kd of 200 ± 19 µM.
N[C@H](Cc1c[nH]c2ccccc12)C(=O)SCCc1c[nH]c2ccccc12 [compound 17, indole-substituted thioester 17] was tested, and the Kd was 45 ± 4.4 µM.
NC(Cc1c[nH]c2ncccc12)C(=O)SCCc1ccccc1 (racemic) [compound 27, aza-tryptophan analogue 27] gave a Kd of 110 ± 9.1 µM.
Work on N[C@H](Cc1c[nH]c2ccccc12)C(=O)OCCc1ccccc1 [compound 2, phenethyl ester 2] yielded a Kd of 200 ± 17 µM.
N[C@H](Cc1c[nH]c2ccccc12)C(=O)NCCc1c[nH]c2ccccc12 [compound 9, acyclic cWW-9] gave a Kd of 110 ± 6 µM.
With NC(Cc1c[nH]c2ccc(O)cc12)C(=O)SCCc1ccccc1 (racemic) [compound 26, compound 26 (5-hydroxy indole)] the Kd was 130 ± 9.3 µM.
In the case of NC(Cc1c[nH]c2ccc(Br)cc12)c1nc(-c2ccccc2)cs1 (racemic) [compound 32, compound 32 (5-bromo-tryptophan phenyl-thiazole)], the Kd is reported as 32 ± 2.5 µM.
N[C@H](Cc1c[nH]c2ccccc12)c1nc(Cc2c[nH]c3ccccc23)cs1 [compound 18, indole-substituted thiazole 18] gave a Kd of 52 ± 3.1 µM.
NC(Cc1ccccc1Br)C(=O)SCCc1ccccc1 (stereo not shown) [compound 30, 2-bromophenylalanine derivative 30] gave a Kd of 30 ± 3.8 µM.
With N[C@H](Cc1c[nH]c2ccccc12)C(=O)OC/C=C/c1ccccc1 [compound 20, compound 20 (trans-alkene)] the Kd was 120 ± 21 µM.
N[C@H](Cc1c[nH]c2ccccc12)C(=O)NCCc1ccc(O)cc1 [compound 7, acyclic cYW-7] was tested, and the Kd was 260 ± 14 µM.
N[C@H](Cc1c[nH]c2ccccc12)C(=O)SCC1CC(c2ccccc2)=NO1 (stereo partly shown) [compound 25, phenyl-isoxazole-substituted compound 25] gave a Kd of 35 ± 4.2 µM.

These compounds were tested against CYP124 (Mycobacterium tuberculosis, UniProt P9WPP3) (assay: UV/vis Soret shift). Settings: 10 µM; […] ligand, […] DMSO; weak blue shift.
Chain of CYP124 (P9WPP3 whole entry): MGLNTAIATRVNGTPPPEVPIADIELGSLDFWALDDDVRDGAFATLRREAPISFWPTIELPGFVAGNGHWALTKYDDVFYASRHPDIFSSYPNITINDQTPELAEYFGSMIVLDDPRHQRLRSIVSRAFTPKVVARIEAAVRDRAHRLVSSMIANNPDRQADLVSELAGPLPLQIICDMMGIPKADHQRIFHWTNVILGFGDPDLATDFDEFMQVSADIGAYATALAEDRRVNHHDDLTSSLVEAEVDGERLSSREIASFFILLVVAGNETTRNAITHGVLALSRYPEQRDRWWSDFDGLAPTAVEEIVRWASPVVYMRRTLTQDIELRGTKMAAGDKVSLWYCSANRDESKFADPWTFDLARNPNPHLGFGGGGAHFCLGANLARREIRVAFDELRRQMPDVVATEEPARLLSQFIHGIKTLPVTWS
Assay type: binding
Work on NC(Cc1c[nH]c2ccc(Br)cc12)C(=O)SCCc1ccccc1 (racemic) [compound 31, compound 31 (5-bromo-tryptophan phenethyl-thioester)] yielded a CYP124 of −2 nm.

Same assay, conditions: 100 µM; […] ligand, […] DMSO; weak blue shift
N[C@H](Cc1c[nH]c2ccccc12)C(=O)NCCc1c[nH]c2ccccc12 [compound 9, acyclic cWW-9] showed a CYP124 of −2 nm.

The compounds below were run against CYP142 (Mycobacterium tuberculosis, UniProt P9WPL5) (assay: UV/vis Soret shift). Settings: 2000 µM; […] ligand, […] DMSO; type II.
Chain of CYP142 (P9WPL5 whole entry): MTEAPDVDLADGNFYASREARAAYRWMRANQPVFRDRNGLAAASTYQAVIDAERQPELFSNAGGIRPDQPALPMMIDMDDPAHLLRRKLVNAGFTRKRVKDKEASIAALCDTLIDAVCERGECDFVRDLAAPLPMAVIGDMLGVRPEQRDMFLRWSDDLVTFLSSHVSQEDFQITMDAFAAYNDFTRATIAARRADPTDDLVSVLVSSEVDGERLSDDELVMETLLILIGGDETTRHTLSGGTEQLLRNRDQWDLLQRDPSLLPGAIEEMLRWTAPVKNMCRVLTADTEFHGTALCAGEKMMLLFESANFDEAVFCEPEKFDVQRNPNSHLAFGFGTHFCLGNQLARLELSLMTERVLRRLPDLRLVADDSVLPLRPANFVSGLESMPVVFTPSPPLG
Assay type: binding
Text: UV/vis Soret shift on CYP142
In the case of COC(=O)[C@H](N)Cc1c[nH]c2ccccc12 [1a, D-tryptophan methyl ester], the CYP142 is reported as “+2 nm”.

Each compound was assayed against T1, Mtb CYP121 (assay: thermal shift assay). Settings: not given.
Assay type: binding
Text: thermal shift assay on Mtb CYP121
Work on COC(=O)[C@H](N)Cc1ccc(O)cc1 [1b, D-tyrosine methyl ester] yielded a ΔTm at 5000 µM of 3 °C.

Reference: article PMC5026067, “Substrate Fragmentation for the Design of M. tuberculosis CYP121 Inhibitors” (Chemmedchem, 2016)
